Measured values as given in US20230201383A1, “PSMA TARGETING UREA-BASED LIGANDS FOR PROSTATE CANCER RADIOTHERAPY AND IMAGING” (Rigshospitalet, priority 2020, published 2023).
“Also recorded” adds a separate entry of the source. Where a name gives a salt, the structure may show the parent alone.

Experiments:
[1] = tested on: PSMA(+) LNCaP cells; test: Internalisation and cell surface binding of 68Ga-labeled compounds in LNCaP cells; format: cell-based, human
Method: Compounds Ii, Ij, Ik, Il, Im and In was provided using the same method as disclosed in Example 3 and in vitro test of the binding affinity and internalisation of the compounds were examined using the method as described in Benesova et al, 2016^9. The iodine isotope used was ^127I.
For internalisation determinations, a day before the experiment, PSMA(+) LNCaP cells were seeded in a poly-L-lysine coated 24-well plate (10^5 cells per well) and maintained at 37° C. in an atmosphere of 5% CO2 under supplemented RMPI medium (10% Fetal Calf Serum, 1% sodium pyruvate, 1% FIS). Cells were incubated with 250 μL of radiolabelled compound diluted in RPMI medium (final concentration of [^68Ga]-peptide: 30 nM) and 500 μM of PMPA (2-phosphonomethyl-pentanedioic acid) for the blocked series, for 45 min at 37° C. Cellular uptake was interrupted by washing the cells with ice-cold PBS (3×1 mL). Surface bound radioactivity was removed by incubating twice with 0.5 mL glycine (50 mM, pH=2.8) for 5 min. Thereafter, cells were washed with PBS (1 mL) and lysed employing NaOH (0.3 M) during 10 min. Lysates and surface-bound activity were collected and measured in a gamma-counter (Perkin Elmer 2480, Wizard, Gamma Counter). The cell uptake was calculated as percent of the initially added radioactivity bound to […].
For internalisation studies androgen-sensitive human prostate adenocarcinoma cells (LNCaP) highly overexpressing PSMA were incubated with the ^68Ga-labeled compounds resulting in specific cell surface binding of all tested compounds (Table 2).

[2] = tested on: LNCaP-tumor-bearing athymic nude mice; test: Small-animal PET imaging: tumor uptake and pharmacokinetic profile; format: in vivo; details: for Binding profile and biodistribution/pharmacokinetics compared with PSMA-617: direct head-to-head comparison with PSMA-617
Method: For the experimental tumor models 1×10^7 cells of LNCaP (in 50% Matrigel; Becton Dickinson) were subcutaneously inoculated into the right flank of 7- to 8-week-old male BALB/c nu/nu mice (Janvier). For imaging studies, mice were anesthetized (2% isoflurane) and 0.5 nmol of the ^68Ga-labeled compound in 0.9% NaCl (pH 7) were injected into the tail vein. PET imaging was performed with μPET/MRI scanner (BioSpec 3T, Bruker) with a dynamic scan for 60 min. The images were iteratively reconstructed (MLEM 0.5 algorithm, 12 iterations) and were converted to SUV images. Quantification was done using a ROI (region of interest) technique and data in expressed in time activity curves as SUVbody weight. All animal experiments complied with the current laws of the Federal Republic of Germany.
FIGS. 2 to 7 show the pharmacokinetic study with small-animal PET imaging. Time activity curves for non-target organs and tumor after injection of 0.5 nmol ^68Ga-labeled compounds in LNCaP-tumor-bearing athymic nude mice (right trunk) up to 60 min p.i. SUV=standardized uptake value.

[3] = 68Ga-labeled compounds, 30 nM, 45 min at 37° C., LNCaP cells, specific uptake by blockage with 500 μM 2-PMPA, mean ± SD (n=3)
[4] = 68Ga-labeled compounds, LNCaP cells, trifluoroacetic acid salt
[5] = 0.5 nmol 68Ga-labeled compound i.v., PET up to 60 min p.i., time activity curves (SUV)
[6] = 68Ga-labeled compounds, LNCaP cells

Tumor uptake compared with PSMA-617 [2, 5]	SMILES	Specifically cell surface bound [1, 3]	Specifically internalised [1, 3]	Internalisation compared with PSMA-617 (in words) [1, 4]	Binding profile and biodistribution/pharmacokinetics compared with PSMA-617 [2]	Internalisation compared with PSMA-617 (in words) [1, 6]	Specifically cell surface bound ([1]; 0.75 h, 0.03 µM)	Tumor accumulation (reversibility) [2, 5]	Tumor-to-muscle ratio compared with PSMA-617 [2, 5]
higher tumor uptake compared to PSMA-617	O=C(O)CC[C@H](NC(=O)N[C@@H](CCCCNC(=O)[C@H](Cc1ccc2ccccc2c1)NC(=O)[C@H]1CC[C@H](CNC(=O)[C@H](Cc2ccc(I)cc2)NC(=O)CN2CCN(CC(=O)O)CCN(CC(=O)O)CCN(CC(=O)O)CC2)CC1)C(=O)O)C(=O)O [Im, (((S)-1-carboxy-5-((S)-2-((1S,4S)-4-(((S)-3-(4-iodophenyl)-2-(2-(4,7,10-tris(carboxymethyl)-1,4,7,10-tetraazacyclododecan-1-yl)acetamido)propanamido)methyl)cyclohexanecarboxamido)-3-(naphthalen-2-yl)propanamido)pentyl)carbamoyl)-L-glutamic acid trifluoroacetic acid salt]	1.6 ± 0.5 % IA/10^5 cells	0.9 ± 0.5 % IA/10^5 cells	higher than or comparable to PSMA-617; also recorded: comparable to PSMA-617	comparable or superior to values observed for PSMA-617				
	O=C(O)CC[C@H](NC(=O)N[C@@H](CCCCNC(=O)[C@H](Cc1cccc(I)c1)NC(=O)[C@H]1CC[C@H](CNC(=O)CN2CCN(CC(=O)O)CCN(CC(=O)O)CCN(CC(=O)O)CC2)CC1)C(=O)O)C(=O)O [Ij, (((S)-1-carboxy-5-((S)-3-(3-iodophenyl)-2-((1r,4S)-4-((2-(4,7,10-tris(carboxymethyl)-1,4,7,10-tetraazacyclododecan-1-yl)acetamido)methyl)cyclohexane-1-carboxamido)propanamido)pentyl)carbamoyl)-L-glutamic acid trifluoroacetic acid salt]	2.3 ± 0.2 % IA/10^5 cells	0.8 ± 0.3 % IA/10^5 cells	higher than or comparable to PSMA-617; also recorded: comparable to PSMA-617					
	O=C(O)CC[C@H](NC(=O)N[C@@H](CCCCNC(=O)[C@@H](Cc1c[nH]c2ccc(I)cc12)NC(=O)[C@H]1CC[C@H](CNC(=O)CN2CCN(CC(=O)O)CCN(CC(=O)O)CCN(CC(=O)O)CC2)CC1)C(=O)O)C(=O)O [Il, (((S)-1-carboxy-5-((R)-3-(5-iodo-1H-indol-3-yl)-2-((1r,4R)-4-((2-(4,7,10-tris(carboxymethyl)-1,4,7,10-tetraazacyclododecan-1-yl)acetamido)methyl)cyclohexane-1-carboxamido)propanamido)pentyl)carbamoyl)-L-glutamic acid trifluoroacetic acid salt]	1.6 ± 0.4 % IA/10^5 cells	0.6 ± 0.2 % IA/10^5 cells			comparable to PSMA-617			
	O=C(O)CC[C@H](NC(=O)N[C@@H](CCCCNC(=O)[C@H](Cc1ccc2ccccc2c1)NC(=O)[C@H](Cc1ccc(I)cc1)NC(=O)CN1CCN(CC(=O)O)CCN(CC(=O)O)CCN(CC(=O)O)CC1)C(=O)O)C(=O)O [In, (((S)-1-carboxy-5-((S)-2-((S)-3-(4-iodophenyl)-2-(2-(4,7,10-tris(carboxymethyl)-1,4,7,10-tetraazacyclododecan-1-yl)acetamido)propanamido)-3-(naphthalen-2-yl)propanamido)pentyl)carbamoyl)-L-glutamic acid trifluoroacetic acid salt]	0.4 ± 0.1 % IA/10^5 cells	0.2 ± 0.1 % IA/10^5 cells			reduced internalised fraction			
	O=C(O)CC[C@H](NC(=O)N[C@@H](CCCCNC(=O)[C@H](Cc1ccc2ccccc2c1)NC(=O)[C@H]1CC[C@H](CNC(=O)CN2CCN(CC(=O)O)CCN(CC(=O)O)CCN(CC(=O)O)CC2)CC1)C(=O)O)C(=O)O [PSMA-617, reference compound]		0.6 ± 0.2 % IA/10^5 cells				1.5 ± 0.4 % IA/10^5 cells		
	O=C(O)CC[C@H](NC(=O)N[C@@H](CCCCNC(=O)[C@H](Cc1ccc(I)cc1)NC(=O)[C@H]1CC[C@H](CNC(=O)CN2CCN(CC(=O)O)CCN(CC(=O)O)CCN(CC(=O)O)CC2)CC1)C(=O)O)C(=O)O [Ik, (((S)-1-carboxy-5-((S)-3-(4-iodophenyl)-2-((1r,4S)-4-((2-(4,7,10-tris(carboxymethyl)-1,4,7,10-tetraazacyclododecan-1-yl)acetamido)methyl)cyclohexane-1-carboxamido)propanamido)pentyl)carbamoyl)-L-glutamic acid trifluoroacetic acid salt]	0.7 ± 0.1 % IA/10^5 cells	0.6 ± 0.3 % IA/10^5 cells			comparable to PSMA-617		more reversible tumor accumulation	
	O=C(O)CC[C@H](NC(=O)N[C@@H](CCCCNC(=O)[C@H](Cc1ccccc1I)NC(=O)[C@H]1CC[C@H](CNC(=O)CN2CCN(CC(=O)O)CCN(CC(=O)O)CCN(CC(=O)O)CC2)CC1)C(=O)O)C(=O)O [Ii, (((S)-1-carboxy-5-((S)-3-(2-iodophenyl)-2-((1r,4S)-4-((2-(4,7,10-tris(carboxymethyl)-1,4,7,10-tetraazacyclododecan-1-yl)acetamido)methyl)cyclohexane-1-carboxamido)propanamido)pentyl)carbamoyl)-L-glutamic acid trifluoroacetic acid salt]	1.1 ± 0.4 % IA/10^5 cells	0.7 ± 0.1 % IA/10^5 cells		comparable or superior to values observed for PSMA-617	comparable to PSMA-617			increased at later time points compared to PSMA-617
